Five compounds from US20250282759A1, “POLYMORPHIC AND SALT FORMS OF THE AUTOTAXIN INHIBITOR CUDETAXESTAT” (Sabre Therapeutics LLC, priority 2022, published 2025) can be followed below.

Format in all cases: physicochemical
A short description of series [1]: Competitive slurry of Form A and Form C of Compound 1. The conditions noted are these: 2 days. An excerpt: The obtained solids were isolated for XRPD analysis.
A short description of series [2]: Form E exposed to ambient condition. Particulars: 5 hours.
Series [3] is described as follows: Dynamic Vapor Sorption (DVS). Particulars: for moisture uptake / hygroscopicity: 25° C./80% RH; for hygroscopicity: DVS. The protocol:
Dynamic Vapor Sorption (DVS) analysis was conducted using a SMS (Surface Measurement Systems) DVS Intrinsic analyzer using the parameters listed below. [table]

Series [4] is described as follows: Physical and chemical stability under 25° C./60% RH and 40° C./75% RH. The conditions noted are these: for degradation and/or form change: 25° C./60% RH and 40° C./75% RH, one week; for Stability results (Open for 1 week) Form change: XRPD; for Initial Purity (area %): before storage. The protocol: Stability measurements were analyzed with a Waters H-Class ultra-performance liquid chromatography (UPLC) system using the conditions and parameters listed below.
Approximately 20 mg of a solid sample of each crystalline form was added to a HPLC vial (open dish) and then stored under 25° C./60% RH or 40° C./75% RH. After one week, the samples were removed from the test conditions and analyzed by HPLC and XRPD to assess chemical and physical stability, respectively.

The structures appear in SMILES notation. “Also recorded” adds a separate entry of the source.

Turning to `CCCn1cc(-n2c(Cl)c(Sc3cccc(C(=O)O)c3F)c3ccc(Cl)c(F)c32)cn1` [Form A + Form C], the “XRPD Result” value in series [1] (Acetone, water activity 0.0, room temperature) was “Form C”; in series [1] (Acetone/H2O (605:395), water activity 0.8, room temperature), “Form A”; in series [1] (Acetone/H2O (858:142), water activity 0.6, room temperature), “Form A”; in series [1] (Acetone/H2O (950:50), water activity 0.4, room temperature), “Form C”; in series [1] (Acetone/H2O (986:14), water activity 0.2, room temperature) it was “Form C”; in series [1] (H2O, water activity 1.0, room temperature) it was “Form A”.
With `CCCn1cc(-n2c(Cl)c(Sc3cccc(C(=O)O)c3F)c3ccc(Cl)c(F)c32)cn1` [Form E], the “form transfer on exposure to ambient condition” value in series [2] is “transferred back to Form A; also recorded: Freeform Type E transferred to freeform Type A after”.
With `CCCn1cc(-n2c(Cl)c(Sc3cccc(C(=O)O)c3F)c3ccc(Cl)c(F)c32)cn1` [Form 3 of Compound 1-B], in series [3], the moisture uptake turned out to be 0.1% and the hygroscopicity entry is “non-hygroscopic”. For the same compound, the “form change after DVS test” value in series [3] (after DVS test) is reported as “No form change”. Also, in series [4], the “degradation and/or form change” value is reported as “no significant degradation and/or form change” and the “Initial Purity (area %)” value came out at 99.77 area %. Also, in series [4] (25° C./60% RH), the “Stability results (Open for 1 week) Appearance” value is given as “No”, the “Stability results (Open for 1 week) Purity (area %)” value (from here on “Stability results … (area %)”) is given as 99.72 area % and the “Stability results (Open for 1 week) Form change” value is given as “No”. Besides, in series [4] (40° C./75% RH), the “Stability results (Open for 1 week) Appearance” value is listed as “No”, the “Stability results … (area %)” value is listed as 99.73 area % and the “Stability results (Open for 1 week) Form change” value is “No”.
Consider `CCCn1cc(-n2c(Cl)c(Sc3cccc(C(=O)O)c3F)c3ccc(Cl)c(F)c32)cn1` [Form 1 of Compound 1-A], for which, in series [3], the moisture uptake was determined as 0.32% and the hygroscopicity result is “slightly hygroscopic”. For the same compound, the hygroscopicity entry in series [3] (listed as crystalline Form 1) was “slightly hygroscopic; also recorded: non-hygroscopic”. Moreover, in series [4], the “degradation and/or form change” value is “no significant degradation and/or form change” and the “Initial Purity (area %)” value worked out at 99.79 area %. For the same compound, in series [4] (25° C./60% RH), the “Stability results (Open for 1 week) Appearance” value is “No”, the “Stability results … (area %)” value worked out at 99.73 area % and the “Stability results (Open for 1 week) Form change” value is “No”. In series [4] (40° C./75% RH), the “Stability results (Open for 1 week) Appearance” value is “No”, the “Stability results … (area %)” value is listed as 99.73 area % and the “Stability results (Open for 1 week) Form change” value is “No”.
`CCCn1cc(-n2c(Cl)c(Sc3cccc(C(=O)O)c3F)c3ccc(Cl)c(F)c32)cn1` [Form A]: in series [4], the “degradation and/or form change” value is “no significant degradation and/or form change” and the “Initial Purity (area %)” value came out at 99.78 area %. Also, in series [4] (25° C./60% RH), the “Stability results (Open for 1 week) Appearance” value was “No”, the “Stability results … (area %)” value is listed as 99.82 area % and the “Stability results (Open for 1 week) Form change” value is “No”. Further, in series [4] (40° C./75% RH), the “Stability results (Open for 1 week) Appearance” value is “No”, the “Stability results … (area %)” value was 99.75 area % and the “Stability results (Open for 1 week) Form change” value was “No”.
